Assay results from patent US20140378426A1, “Methods and compositions for enhancing visual function” (priority 2013, published 2014).

Columns and labels:
[1] = cited from earlier work
[2] = molecular target: T1, bovine rhodopsin activation of bovine rod transducin (Bos taurus, UniProt P02699); assay: radioactive filter binding assay: rhodopsin activation of bovine rod transducin (35S-GTPγS binding); assay type: biochemical
T1 construct: Rhodopsin can be purified from membrane fractions isolated from bovine rod outer segments; from tissue; host or cells: bovine retina / bovine rod outer segments
From the text: Vision enhancing activity of the estradiol analogs or derivatives can be examined in accordance with methods described herein or well known in the art. For example, the compounds can be assessed for ability to promote rhodopsin activation of rod transducin using a well-described radioactive filter binding assay. Detailed procedures for carrying out the assay are described in the art, e.g., Kono et al., Biochem. 44:799, 2005; Kono et al., FEBS Lett. 580:229-232, 2006; and Robinson et al., Methods Enzymol. 315:207-218, 2000). […] Effect of estradiol or an analog compound on rhodopsin activation of rod transducing can then be measured by monitoring binding of [35S]GTPγS to transducin in the presence or absence of the compound. The reaction mixture can contain, e.g., an appropriate buffer (e.g., an HEPES buffer or 10 mM Tris/1 mM MES buffer (pH 7.5)), 1 mM dithiothreitol, 5 mM MgCl2, 115 mM NaCl, 2.5 μM transducin, 0.01% DM, and 5 nM pigment (as determined from the extinction coefficient).
We examined the effect of the 17β-estradiol on opsin signaling and transducin activation. We measured the ability of estradiol to modulate rhodopsin activation of bovine rod transducin using the radioactive filter binding assay as described in Kono et al., Biochemistry 44:799-804, 2005; and Kono & Crouch, Methods Mol. Biol. 652:85-94, 2010. […]

T1 sequence (P02699 whole entry): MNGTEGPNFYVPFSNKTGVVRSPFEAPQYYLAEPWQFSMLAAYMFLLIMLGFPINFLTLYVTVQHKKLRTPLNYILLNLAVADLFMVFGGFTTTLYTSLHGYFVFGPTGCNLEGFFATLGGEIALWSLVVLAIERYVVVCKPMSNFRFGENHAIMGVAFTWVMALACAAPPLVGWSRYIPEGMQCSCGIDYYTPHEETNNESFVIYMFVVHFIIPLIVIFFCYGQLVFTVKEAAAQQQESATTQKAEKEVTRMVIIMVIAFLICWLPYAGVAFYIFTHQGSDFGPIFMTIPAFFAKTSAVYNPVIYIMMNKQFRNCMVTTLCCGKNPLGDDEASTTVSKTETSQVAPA

35S-GTPγS bound to transducin in the presence vs. absence of 17β-estradiol ([2]; bovine rhodopsin illuminated with 15 sec pulse of yellow light, Rho+estradiol vs Rho alone, FIG. 1): about three-fold
rhodopsin activation of rod transducin (result in words) ([2]; presence of 17β-estradiol): significantly up-regulated
SMILES: C[C@]12CC[C@@H]3c4ccc(O)cc4CC[C@H]3[C@@H]1CC[C@@H]2O [17β-estradiol]
potency in estrogenic effect relative to estriol ([1]; estradiol vs estriol): about 80 times
potency in estrogenic effect relative to estrone ([1]; estradiol vs estrone): about 10 times
